Test results from patent US10239887B2, “Positive allosteric modulators of the muscarinic acetylcholine receptor M4” (Vanderbilt University, priority 2016, dated 2019).
Structures can show the parent of a compound that is named as a salt. Where two headings read alike, the source gives them in different places.

Target: T1, human mAChR M4 (Homo sapiens, UniProt P08173)
T1 sequence (P08173 1-479): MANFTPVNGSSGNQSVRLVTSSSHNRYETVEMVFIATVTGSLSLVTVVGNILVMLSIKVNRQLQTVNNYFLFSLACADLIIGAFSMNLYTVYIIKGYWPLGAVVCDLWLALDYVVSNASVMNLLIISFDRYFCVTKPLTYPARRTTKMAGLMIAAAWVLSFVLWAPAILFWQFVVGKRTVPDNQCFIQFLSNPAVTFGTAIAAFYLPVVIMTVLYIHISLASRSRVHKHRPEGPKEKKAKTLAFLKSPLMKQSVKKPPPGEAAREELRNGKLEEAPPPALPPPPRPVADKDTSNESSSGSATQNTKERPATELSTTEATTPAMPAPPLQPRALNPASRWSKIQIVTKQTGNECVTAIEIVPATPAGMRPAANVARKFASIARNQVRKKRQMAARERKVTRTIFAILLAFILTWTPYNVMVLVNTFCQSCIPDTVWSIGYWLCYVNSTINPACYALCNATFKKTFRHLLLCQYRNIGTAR
Assay: mAChR M4 cell-based functional assay (calcium flux), human M4

[1] = Human M4 EC50 (nM), Table 10, calcium flux, PAM activity with EC20 acetylcholine
[2] = Table 10, % ACh maximum at 30 μM
[3] = Human M4 EC50 (nM), Table 11, calcium flux, PAM activity with EC20 acetylcholine
[4] = Table 11, % ACh maximum at 30 μM
[5] = Human M4, % ACh maximum at 30 μM
[6] = Human M4 EC50, CHO-K1 hM4-Gqi5 cells, calcium flux, increase in EC20 acetylcholine response

| EC50 [1] | Emax [2] | SMILES | further results |
| --- | --- | --- | --- |
| 1920 nM | 72.3% | Cc1nc2sc3c(NC4CN(c5ccnc(C6(O)CCC6)c5)C4)ncnc3c2c(C)c1Cl [Compound 239, 1-[4-[3-[(8-chloro-7,9-dimethyl-pyrido [3′,2′:4,5]thieno[3,2-d]pyrimidin-4-yl)amino]azetidin-1-yl]-2-pyridyl]cyclobutanol] | – |
| – | – | Cc1nnc2sc3c(NCc4ccc(C(=O)NC5CC5)c(Cl)c4)ncnc3c2c1C [Compound 313, 2-chloro-N-cyclopropyl-4-[[(3,4-dimethylpyrimido[4′,5′:4,5]thieno[2,3-c]pyridazin-8-yl)amino]methyl]benzamide] | EC50 [3]: 166 nM; Emax [4]: 75.2% |
| 359 nM | 75.5% | Cc1cc(C)c2c(n1)sc1c(NC3CCC3)ncnc12 [Compound 200, N-cyclobutyl-7,9-dimethyl-pyrido [3′,2′:4,5]thieno[3,2-d] pyrimidin-4-amine] | – |
| – | – | Cc1nnc2sc3c(NCc4ccc(C(=O)N[C@H](C)C(F)(F)F)c(Cl)c4)ncnc3c2c1C [Compound 320, 2-chloro-4-[[(3,4-dimethylpyrimido [4′,5′:4,5]thieno[2,3-c]pyridazin-8-yl)amino]methyl]-N-[(1R)-2,2,2-trifluoro-1-methyl-ethyl] benzamide] | EC50 [3]: 532 nM; Emax [4]: 81.1% |
| 1160 nM | 61.8% | Cc1nc2oc3c(NCc4ccc(C(C)(C)O)cc4)ncnc3c2c(C)c1Cl [Compound 251, 2-[4-[[(8-chloro-7,9-dimethyl-pyrido [3′,2′:4,5]furo[3,2-d]pyrimidin-4-yl)amino]methyl]phenyl]propan-2-ol] | – |
| 139 nM | 70.5% | Cc1nnc2sc3c(NC4CN(C(=O)OC(C)(C)C)C4)ncnc3c2c1C [Compound 87, tert-butyl 3-[(3,4-dimethylpyrimido [4′,5′:4,5]thieno[2,3-c]pyridazin-8-yl)amino] azetidine-1-carboxylate] | – |
| – | – | Cc1cc(C)c(OC2CN(c3ncnc4c3sc3nnc(C)c(C)c34)C2)cn1 [Compound 351, 8-[3-[(4,6-dimethyl-3-pyridyl)oxy]azetidin-1-yl]-3,4-dimethyl-pyrimido[4′,5′:4,5]thieno [2,3-c]pyridazine dihydrochloride] | EC50 [3]: 444 nM; Emax [4]: 62.1% |
| 1130 nM | 51.7% | Cc1nnc2sc3c(N4CC(NC(=O)c5ccncc5)C4)ncnc3c2c1C [Compound 97, N-[1-(3,4-dimethylpyrimido [4′,5′:4,5]thieno[2,3-c]pyridazin-8-yl)azetidin-3-yl]pyridine-4-carboxamide hydrochloride] | – |
| 2410 nM | 31.6% | Cc1cnc(N2CC3(CC(Nc4ncnc5c4sc4nnc(C)c(C)c45)C3)C2)nc1 [Compound 165, 3,4-dimethyl-N-[2-(5-methylpyrimidin-2-yl)-2-azaspiro[3.3]heptan-6-yl]pyrimido [4′,5′:4,5]thieno[2,3-c] pyridazin-8-amine] | – |
| 1240 nM | 80.3% | COC(=O)C12CC(CNc3ncnc4c3sc3nnc(C)c(C)c34)(C1)C2 [Compound 140, methyl 1-[[(3,4-dimethylpyrimido [4′,5′:4,5]thieno[2,3-c]pyridazin-8-yl)amino]methyl]bicyclo[1.1.1] pentane-3-carboxylate] | – |
| – | 74.7% | Cc1ncc(CNc2ncnc3c2sc2nc(C)c(Cl)c(C)c23)cn1 [Compound 271, 8-chloro-7,9-dimethyl-N-[(2-methylpyrimidin-5-yl)methyl]pyrido [3′,2′:4,5]thieno[3,2-d] pyrimidin-4-amine dihydrochloride] | EC50 (Human M4 EC50 (nM), Table 10, unit μM (bounds)): > 10000 nM |
| – | – | Cc1nnc2oc3c(NCc4ccc(C5(O)CCC5)cc4)ncnc3c2c1C [Compound 64, 1-[4-[[(3,4-dimethylpyrimido [4′,5′:4,5]furo[2,3-c]pyridazin-8-yl)amino]methyl]phenyl] cyclobutanol] | Emax [5]: 58.2%; EC50 [6]: 862 nM |
| 3710 nM | 44.3% | Cc1c(Cl)cnc2sc3c(NC4CN(c5cc(Cl)ncc5Cl)C4)ncnc3c12 [Compound 231, 8-chloro-N-[1-(2,5-dichloro-4-pyridyl)azetidin-3-yl]-9-methyl-pyrido [3′,2′:4,5]thieno[3,2-d] pyrimidin-4-amine] | – |
| – | 74.3% | Cc1nnc2sc3c(NC4CN(c5cc(Cl)ncc5Cl)C4)ncnc3c2c1C [Compound 85, N-[1-(2,5-dichloro-4-pyridyl)azetidin-3-yl]-3,4-dimethyl-pyrimido [4′,5′:4,5]thieno[2,3-c] pyridazin-8-amine] | – |
| 59.4 nM | 73% | Cc1nnc2oc3c(NC4CN(c5ccc(F)c(F)c5)C4)ncnc3c2c1C [Compound 297, N-[1-(3,4-difluorophenyl)azetidin-3-yl]-3,4-dimethyl-pyrimido[4′,5′:4,5]furo [2,3-c]pyridazin-8-amine] | – |
| 787 nM | 68.5% | Cc1c(Cl)nnc2sc3c(NCc4ccc(OC(F)F)nc4)ncnc3c12 [Compound 211, 3-chloro-N-[[6-(difluoromethoxy)-3-pyridyl]methyl]-4-methyl-pyrimido [4′,5′:4,5]thieno[2,3-c] pyridazin-8-amine] | – |
| 3090 nM | 85% | Cc1nnc2sc3c(NCC45CC(C(C)(C)O)(C4)C5)ncnc3c2c1C [Compound 138, 2-[1-[[(3,4-dimethylpyrimido [4′,5′:4,5]thieno[2,3-c]pyridazin-8-yl)amino]methyl]-3-bicyclo[1.1.1]pentanyl]propan-2-ol] | – |
| 839 nM | 59.2% | Cc1nnc2sc3c(NC(C)c4ccc(C5(O)CCC5)cc4)ncnc3c2c1C (centres unmarked) [Compound 101, 1-[4-[1-[(3,4-dimethylpyrimido [4′,5′:4,5]thieno[2,3-c]pyridazin-8-yl)amino]ethyl]phenyl]cyclobutanol] | – |
| – | – | COc1ccc(C2CC2Nc2ncnc3c2sc2nnc(C)c(C)c23)cc1 (centres unmarked) [Compound 26, N-(2-(4-methoxyphenyl)cyclopropyl)-3,4-dimethylpyrimido [4′,5′:4,5]thieno[2,3-c] pyridazin-8-amine] | Emax [5]: 44%; EC50 [6]: ≥ 10000 nM |
| 49.1 nM | 108% | Cc1nnc2sc3c(NCc4ccc(CN5CCCC5C(C)(C)O)cc4)ncnc3c2c1C (centres unmarked) [Compound 117, 2-[1-[[4-[[(3,4-dimethylpyrimido [4′,5′:4,5]thieno[2,3-c]pyridazin-8-yl)amino]methyl]phenyl]methyl]pyrrolidin-2-yl]propan-2-ol] | – |
| 665 nM | 56.2% | Cc1c(Cl)cnc2sc3c(NC4CC4(C)C)ncnc3c12 (centres unmarked) [Compound 227, 8-chloro-N-(2,2-dimethylcyclopropyl)-9-methyl-pyrido[3′,2′:4,5] thieno[3,2-d] pyrimidin-4-amine] | – |
| 1510 nM | 64.9% | Cc1nc2sc3c(N4CCC(F)C4)ncnc3c2c(C)c1Cl (centres unmarked) [Compound 258, 8-chloro-4-(3-fluoropyrrolidin-1-yl)-7,9-dimethyl-pyrido [3′,2′:4,5]thieno[3,2-d] pyrimidine hydrochloride] | – |

| SMILES | EC50 [1] | Emax [2] | further results |
| --- | --- | --- | --- |
| Cc1cc(CNc2ncnc3c2sc2nnc(C)c(C)c23)cnc1C [Compound 148, N-[(5,6-dimethyl-3-pyridyl)methyl]-3,4-dimethyl-pyrimido [4′,5′:4,5]thieno[2,3-c] pyridazin-8-amine hydrochloride] | 522 nM | – | Emax: 84% |
| Cc1cc(C)c(CNc2ncnc3c2sc2nnc(C)c(C)c23)cn1 [Compound 147, N-[(4,6-dimethyl-3-pyridyl)methyl]-3,4-dimethyl-pyrimido [4′,5′:4,5]thieno[2,3-c] pyridazin-8-amine hydrochloride] | 429 nM | – | Emax: 85.8% |
